# Like-named read-outs stand apart in the source and are kept apart here.
# What was measured:
# [1] = system: Escherichia coli CCM 3954 (ATCC 25922); test: Antibacterial microdilution broth (EUCAST); format: cell-based; conditions: for MIC: Escherichia coli, read-out: MIC Escherichia coli
# [2] = system: HepG2 cell line; test: Cytotoxicity screening, CellTiter 96 assay; conditions: Homo sapiens, HepG2, 24 h, read-out: IC50 HepG2
# [3] = system: Candida parapsilosis CCM 8260 (ATCC 22019); test: Antifungal microdilution broth (EUCAST); format: cell-based; conditions: Lodderomyces parapsilosis
# [4] = system: methicillin-resistant Staphylococcus aureus subsp. aureus (MRSA) CCM 4750 (ATCC 43300); test: microbe, parasite or virus in culture; format: cell-based; conditions: read-out: MIC Methicillin-resistant Staphylococcus aureus subsp. aureus
# [5] = system: Staphylococcus aureus subsp. aureus CCM 4223 (ATCC 29213); test: Antibacterial microdilution broth (EUCAST); format: cell-based; conditions: read-out: MIC Staphylococcus aureus subsp. aureus
# [6] = system: Mycobacterium kansasii DSM 44,162 (ATCC 12478); test: Antimycobacterial microdilution (resazurin) vs M. kansasii; format: cell-based; conditions: Middlebrook 7H9, resazurin, read-out: MIC M. kansasii
# [7] = system: Mycolicibacterium aurum DSM 43,999 (ATCC 23366); test: Antimycobacterial microdilution (resazurin) vs M. aurum; format: cell-based; conditions: Middlebrook 7H9, resazurin, read-out: MIC M. aurum
# [8] = system: Mycobacterium tuberculosis H37Ra ITM-M006710 (ATCC 9431); test: Antimycobacterial microdilution (resazurin) vs Mtb H37Ra; format: cell-based; conditions: Middlebrook 7H9, resazurin, recalculated from µg/mL, read-out: MIC Mtb H37Ra
# [9] = system: Mycobacterium tuberculosis H37Rv CNCTC My 331/88 (ATCC 27294); test: Microplate Alamar Blue assay vs Mtb H37Rv; format: cell-based; conditions: Mycobacterium tuberculosis, pH 6.6, MABA, Middlebrook 7H9 pH 6.6, recalculated from µg/mL; read-out: MIC Mtb H37Rv
# [10] = system: Aspergillus fumigatus ATCC 204305; test: Antifungal microdilution broth (EUCAST); format: cell-based; conditions: Aspergillus fumigatus
# [11] = system: Aspergillus flavus CCM 8363; test: Antifungal microdilution broth (EUCAST); format: cell-based; conditions: Aspergillus flavus
# [12] = system: Klebsiella pneumoniae CCM 4415 (ATCC 10031); test: Antibacterial microdilution broth (EUCAST); format: cell-based; conditions: for MIC: Klebsiella pneumoniae, read-out: MIC Klebsiella pneumoniae
# [13] = system: Pseudomonas aeruginosa CCM 3955 (ATCC 27853); test: Antibacterial microdilution broth (EUCAST); format: cell-based; conditions: read-out: MIC Pseudomonas aeruginosa
# [14] = system: Candida albicans CCM 8320 (ATCC 24433); test: Antifungal microdilution broth (EUCAST); format: cell-based; conditions: Candida albicans
# [15] = system: Lichtheimia corymbifera CCM 8077; test: Antifungal microdilution broth (EUCAST); format: cell-based; conditions: Lichtheimia corymbifera
# [16] = system: Candida krusei CCM 8271 (ATCC 6258); test: Antifungal microdilution broth (EUCAST); format: cell-based; conditions: Pichia kudriavzevii
# [17] = system: Enterococcus faecalis CCM 4224 (ATCC 29212); test: Antibacterial microdilution broth (EUCAST); format: cell-based; conditions: read-out: MIC Enterococcus faecalis
# [18] = system: Candida tropicalis CCM 8264 (ATCC 750); test: Antifungal microdilution broth (EUCAST); format: cell-based
# [19] = system: Staphylococcus epidermidis CCM 4418 (ATCC 12228); test: Antibacterial microdilution broth (EUCAST); format: cell-based; conditions: read-out: MIC Staphylococcus epidermidis
# [20] = system: Acinetobacter baumannii DSM 30007 (ATCC 19606); test: Antibacterial microdilution broth (EUCAST); format: cell-based; conditions: read-out: MIC Acinetobacter baumannii
# [21] = system: Trichophyton interdigitale CCM 8377 (ATCC 9533); test: Antifungal microdilution broth (EUCAST); format: cell-based; conditions: Trichophyton interdigitale
# [22] = system: Mycobacterium avium DSM 44,156 (ATCC 25291); test: Antimycobacterial microdilution (resazurin) vs M. avium; format: cell-based; conditions: Mycobacterium avium, Middlebrook 7H9, resazurin; read-out: MIC M. avium
# [23] = system: Mycolicibacterium smegmatis DSM 43,465 (ATCC 607); test: Antimycobacterial microdilution (resazurin) vs M. smegmatis; format: cell-based; conditions: Middlebrook 7H9, resazurin, read-out: MIC M. smeg.
# [24] = 24 h, read-out: IC50 (spectrophotometric detection, 530 nm)
# [25] = 24 h, read-out: MIC (visual detection)
smiles,measurement,setting,value
"O=C(Nc1ccc2c(c1)B(O)OC2)c1cscn1 [Compound 16, N-(1-hydroxy-1,3-dihydrobenzo[c][1,2]oxaborol-6-yl)thiazole-4-carboxamide]",MIC Escherichia coli,[1]; 48h incubation,no inhibition
same,MIC,[1]; 24h incubation,500 µM
same,MIC,[1]; 48h incubation,> 500 µM
same,IC50,[2],> 1000 µM
same,MIC,"[3]; 24h incubation, read-out: MIC Candida parapsilosis",> 500 µM
same,MIC,"[3]; 48h incubation, read-out: MIC Candida parapsilosis",> 500 µM
same,MIC,[4]; 24 h,250 µM
same,MIC,[4]; 48 h,500 µM
same,melting point,,225.7 to 227.9 °C
same,MIC,[5]; 24h incubation,125 µM
same,MIC,[5]; 48h incubation,125 µM
same,MIC,[6],30 µM
same,MIC,[7],15 µM
same,MIC,[8],120 µM
same,MIC,[9],96.1 µM
same,MIC,"[10]; ATCC204305, 24h incubation, read-out: MIC Aspergillus fumigatus",> 500 µM
same,MIC,"[10]; ATCC204305, 48h incubation, read-out: MIC Aspergillus fumigatus",> 500 µM
same,MIC,"[11]; CCM8363, 24h incubation, read-out: MIC Aspergillus flavus",> 500 µM
same,MIC,"[11]; CCM8363, 48h incubation, read-out: MIC Aspergillus flavus",> 500 µM
same,MIC Klebsiella pneumoniae,[12]; 48h incubation,no inhibition
same,MIC,[12]; 24h incubation,500 µM
same,MIC,[12]; 48h incubation,> 500 µM
same,MIC,[13]; 24h incubation,> 500 µM
same,MIC,[13]; 48h incubation,> 500 µM
same,MIC,"[14]; 24h incubation, read-out: MIC Candida albicans",> 500 µM
same,MIC,"[14]; 48h incubation, read-out: MIC Candida albicans",> 500 µM
same,MIC,"[15]; CCM8077, 24h incubation, read-out: MIC Lichtheimia corymbifera",> 500 µM
same,MIC,"[15]; CCM8077, 48h incubation, read-out: MIC Lichtheimia corymbifera",> 500 µM
same,MIC,"[16]; 24h incubation, read-out: MIC Candida krusei",> 500 µM
same,MIC,"[16]; 48h incubation, read-out: MIC Candida krusei",> 500 µM
same,MIC,[17]; 24h incubation,> 500 µM
same,MIC,[17]; 48h incubation,> 500 µM
same,MIC,"[18]; 24h incubation, read-out: MIC Candida tropicalis",> 500 µM
same,MIC,"[18]; 48h incubation, read-out: MIC Candida tropicalis",> 500 µM
same,MIC,[19]; 24h incubation,500 µM
same,MIC,[19]; 48h incubation,> 500 µM
same,MIC,[20]; 24h incubation,> 500 µM
same,MIC,[20]; 48h incubation,> 500 µM
same,MIC,"[21]; 72h incubation, read-out: MIC Trichophyton interdigitale",> 500 µM
same,MIC,"[21]; 120h incubation, read-out: MIC Trichophyton interdigitale",> 500 µM
same,MIC,[22],240 µM
same,MIC,[23],30 µM
"C[C@@H](c1ncncc1F)[C@](O)(Cn1cncn1)c1ccc(F)cc1F [voriconazole, reference compound]",IC50,[3]; [24],0.086 µM
same,MIC,[3]; [25],> 45.8 µM
same,IC50,"[10]; ATCC204305, 48 h, read-out: IC50 (spectrophotometric detection, 530 nm)",0.716 µM
same,MIC,"[10]; ATCC204305, 48 h, read-out: MIC (visual detection)",2.86 µM
same,IC50,"[11]; CCM8363, 48 h, read-out: IC50 (spectrophotometric detection, 530 nm)",5.73 µM
same,MIC,"[11]; CCM8363, 48 h, read-out: MIC (visual detection)",> 45.8 µM
same,IC50,[14]; [24],0.086 µM
same,MIC,[14]; [25],> 45.8 µM
same,IC50,"[15]; CCM8077, 48 h, read-out: IC50 (spectrophotometric detection, 530 nm)",> 45.8 µM
same,MIC,"[15]; CCM8077, 48 h, read-out: MIC (visual detection)",> 45.8 µM
same,IC50,[16]; [24],0.716 µM
same,MIC,[16]; [25],> 45.8 µM
same,IC50,"[18]; ATCC 750 / CCM 8264 / CCM 8321, 24 h, read-out: IC50 (spectrophotometric detection, 530 nm)",0.179 µM
same,MIC,"[18]; ATCC 750 / CCM 8264 / CCM 8321, 24 h, read-out: MIC (visual detection)",> 45.8 µM
same,IC50,"[21]; read-out: IC50 (spectrophotometric detection, 530 nm)",2.86 µM
same,MIC,[21]; read-out: MIC (visual detection),> 45.8 µM

# Reference: article PMC9917560, “Design, Synthesis and Antimicrobial Evaluation of New N-(1-Hydroxy-1,3-dihydrobenzo[c][1,2]oxaborol-6-yl)(hetero)aryl-2-carboxamides as Potential Inhibitors of Mycobacterial Leucyl-tRNA Synthetase” (International Journal of Molecular Sciences, 2023)
